Experiments:
[1] = target: T1, Fibroblast growth factor receptor 1 (Homo sapiens, UniProt P11362); assay: Inhibition of recombinant human His-tagged FGFR1 cytoplasmic domain (308 to 731 residues) expressed in baculovirus expression system using Tyr 04 as substrate measured after 1 hr by Z'-LYTE assay
[2] = target: T1, Fibroblast growth factor receptor 1; assay: Inhibition of recombinant human His-tagged FGFR1 cytoplasmic domain (308 to 731 residues) expressed in baculovirus expression system at 500 uM using Tyr 04 as substrate measured after 1 hr by Z'-LYTE assay relative to control
[3] = target: T1, Fibroblast growth factor receptor 1; assay: Inhibition of recombinant human His-tagged FGFR1 cytoplasmic domain (308 to 731 residues) expressed in baculovirus expression system at 100 uM using Tyr 04 as substrate measured after 1 hr by Z'-LYTE assay relative to control
[4] = target: Fibroblast growth factor receptor 3 (Homo sapiens, UniProt P22607); assay: Inhibition of recombinant human His-tagged FGFR3 cytoplasmic domain (399 to 806 residues) expressed in baculovirus expression system using Tyr 04 as substrate measured after 1 hr by Z'-LYTE assay
Fibroblast growth factor receptor 3, sequence (P22607 whole entry, the tested form may be a part): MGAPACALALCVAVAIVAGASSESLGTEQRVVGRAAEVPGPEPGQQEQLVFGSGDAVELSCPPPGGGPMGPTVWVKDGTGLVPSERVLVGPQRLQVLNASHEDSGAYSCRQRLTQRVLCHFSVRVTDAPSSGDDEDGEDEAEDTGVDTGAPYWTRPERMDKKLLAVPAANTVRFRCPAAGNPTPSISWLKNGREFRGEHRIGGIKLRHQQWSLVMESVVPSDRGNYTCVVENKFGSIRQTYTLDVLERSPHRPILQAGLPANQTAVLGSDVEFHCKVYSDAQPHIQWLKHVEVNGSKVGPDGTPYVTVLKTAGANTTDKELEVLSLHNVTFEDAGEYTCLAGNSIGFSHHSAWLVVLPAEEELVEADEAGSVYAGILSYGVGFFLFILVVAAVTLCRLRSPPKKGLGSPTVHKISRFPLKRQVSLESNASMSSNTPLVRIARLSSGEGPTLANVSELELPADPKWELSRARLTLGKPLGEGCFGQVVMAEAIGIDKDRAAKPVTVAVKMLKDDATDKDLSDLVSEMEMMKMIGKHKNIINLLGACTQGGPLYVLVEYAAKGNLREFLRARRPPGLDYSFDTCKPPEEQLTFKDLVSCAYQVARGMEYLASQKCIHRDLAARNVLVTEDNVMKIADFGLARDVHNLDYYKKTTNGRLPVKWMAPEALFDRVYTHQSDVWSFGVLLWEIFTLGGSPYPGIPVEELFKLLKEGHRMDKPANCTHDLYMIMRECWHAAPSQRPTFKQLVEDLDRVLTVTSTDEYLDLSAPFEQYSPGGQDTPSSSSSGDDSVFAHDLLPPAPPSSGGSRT

T1 sequence (P11362 whole entry, the tested form may be a part): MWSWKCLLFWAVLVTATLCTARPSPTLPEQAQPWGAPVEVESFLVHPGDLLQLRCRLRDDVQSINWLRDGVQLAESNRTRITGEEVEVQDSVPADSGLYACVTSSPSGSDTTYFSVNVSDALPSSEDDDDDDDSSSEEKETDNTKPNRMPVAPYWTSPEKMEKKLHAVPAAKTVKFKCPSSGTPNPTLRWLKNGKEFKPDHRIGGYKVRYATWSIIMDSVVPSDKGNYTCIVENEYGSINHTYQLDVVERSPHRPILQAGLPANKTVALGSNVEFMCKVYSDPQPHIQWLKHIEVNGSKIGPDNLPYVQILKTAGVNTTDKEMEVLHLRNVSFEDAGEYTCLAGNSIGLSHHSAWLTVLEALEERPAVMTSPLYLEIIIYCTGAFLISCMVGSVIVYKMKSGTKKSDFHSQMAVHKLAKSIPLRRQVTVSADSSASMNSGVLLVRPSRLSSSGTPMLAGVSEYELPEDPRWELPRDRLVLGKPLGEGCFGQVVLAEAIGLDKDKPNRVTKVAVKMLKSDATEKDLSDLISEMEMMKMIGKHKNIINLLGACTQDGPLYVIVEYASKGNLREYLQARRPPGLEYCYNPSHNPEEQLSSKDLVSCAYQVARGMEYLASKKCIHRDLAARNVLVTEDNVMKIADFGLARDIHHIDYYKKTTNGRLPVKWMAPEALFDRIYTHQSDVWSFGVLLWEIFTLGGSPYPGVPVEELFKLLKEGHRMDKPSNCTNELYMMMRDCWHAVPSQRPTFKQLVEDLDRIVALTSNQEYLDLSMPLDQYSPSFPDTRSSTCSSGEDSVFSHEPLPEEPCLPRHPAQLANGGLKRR

Cc1cc(O)ccc1-c1ccc2cn[nH]c2c1
IC50 [1]: 6.4 µM

c1cncc(-c2ccc3cn[nH]c3c2)c1
IC50 [1]: 90 µM
inhibition at 500 µM [2]: 66%

Clc1cccc(-c2ccc3cn[nH]c3c2)c1
inhibition at 100 µM [3]: 32%

c1ccc(-c2ccc3cc[nH]c3c2)cc1
inhibition at 500 µM [2]: 1%

c1coc(-c2ccc3cn[nH]c3c2)c1
inhibition at 100 µM [3]: 29%

Oc1ccc(-c2ccc3cn[nH]c3c2)c(F)c1
IC50 [4]: > 100 µM
IC50 [1]: 9.9 µM

CCOc1cc(F)cc(-c2ccc3cn[nH]c3c2)c1
IC50 [4]: > 100 µM
IC50 [1]: 83 µM

Clc1cncc(-c2ccc3cc[nH]c3c2)c1
IC50 [1]: > 500 µM
inhibition at 500 µM [2]: 21%

Clc1cncc(-c2ccc3cn[nH]c3c2)c1
IC50 [1]: 36 µM
inhibition at 500 µM [2]: 73%

Cc1csc(-c2ccc3cn[nH]c3c2)c1
inhibition at 100 µM [3]: 19%

Clc1ccc(-c2ccc3cn[nH]c3c2)cc1
inhibition at 100 µM [3]: 12%

Fc1cccc(-c2ccc3cn[nH]c3c2)c1
inhibition at 100 µM [3]: 19%

Oc1ccc(-c2ccc3cn[nH]c3c2)cc1F
IC50 [1]: 14 µM

c1cc(-c2ccc3cn[nH]c3c2)cs1
inhibition at 100 µM [3]: 20%

c1ccc(-c2ccc3cn[nH]c3c2)cc1
IC50 [1]: 77 µM
inhibition at 500 µM [2]: 53%

CCOc1cccc(-c2ccc3cn[nH]c3c2)c1F
IC50 [4]: > 100 µM
IC50 [1]: 9.7 µM

Cc1cc(-c2ccc3cn[nH]c3c2)ccc1O
IC50 [1]: 8.8 µM

CCOc1ccc(F)c(-c2ccc3cn[nH]c3c2)c1F
IC50 [4]: > 100 µM
IC50 [1]: > 100 µM

FC(F)(F)c1cc(-c2ccc3cn[nH]c3c2)cc(C(F)(F)F)c1
inhibition at 100 µM [3]: -5%

COc1ccc(-c2ccc3cn[nH]c3c2)cc1
inhibition at 100 µM [3]: 11%

c1cncc(-c2ccc3cc[nH]c3c2)c1
inhibition at 500 µM [2]: 16%

— ChEMBL document CHEMBL4130593, “Identification of an Indazole-Based Pharmacophore for the Inhibition of FGFR Kinases Using Fragment-Led de Novo Design” (ACS Med Chem Lett, 2017)
